Data on nine molecules can be found in paper PMC10221222 (Pharmaceutics, 2023).

The test system of data set [1] is A549 (non-small cell lung cancer). As to conditions: MTT, 96 h exposure; cited from earlier work.
For data set [2], the system named is CH1/PA-1 (ovarian teratocarcinoma). As to conditions: MTT, 96 h exposure; cited from earlier work.
The subject of data set [3] is SW480 (colon carcinoma). As to conditions: MTT, 96 h exposure; cited from earlier work.
For data set [4], the system named is CT26 murine colon cancer cells. Nature of the data set: MTT assay in murine cell line CT26. Type of data set: cell-based. As to conditions: 72 h exposure.
Description: The MTT assay in the murine cell line CT26 was performed as described in [25].
cells, obtained by MTT assays with 72 h exposure time.
Data set [5] concerns CT26 murine colon cancer allograft. In words: Efficacy study in CT26-allograft-bearing mice (tumor volume, survival). Type of data set: in vivo, BALB/c mice. As to conditions: vs solvent control; i.v. twice a week for two weeks; C12 7.5 mg/kg, cisplatin 3 mg/kg. The protocol:
All drugs were dissolved in 0.9% NaCl.
The promising effects further translate into a prolongation trend of animal survival (Figure 4). While in the cisplatin group, weight loss was critical in addition to tumor necrosis, even smaller tumors tended to get necrotic and broke up in C12-treated animals, making the sacrifice of the animals necessary due to ethical guidelines.

The nature of data set [6]: Tumor, organ and blood distribution of platinum by ICP-MS. Type of data set: in vivo, male CT26-allograft-bearing BALB/c mice. As to conditions: 24 h after second application. Here is the method:
Blood was taken after 30 min and 24 h after the first application from the facial vein and terminally by cardiac puncture 24 h after the second application. To separate serum from blood pellet, blood was twice spun down at 900 g for 10 min at 4 °C. The platinum amount of all samples was measured by ICP-MS.
Renal excretion and glomerular filtration are typical for ≤G4 PAMAM dendrimers and in general for nanoparticles smaller than 5 nm. […] Additionally, the influence of the molecular weight of nanoparticles on the biodistribution behavior was reported previously. […] On the contrary, the efficient kidney accumulation of this dendrimer preparation might also be considered in kidney-specific drug delivery approaches.

Details of data set [7]: method as in PMID 10222430. As to conditions: cited from earlier work.
In data set [8] the test system is A549 (non-small cell lung cancer). Nature of the data set: MTT cytotoxicity assay, 96 h exposure, A549 cells. As to conditions: pertains to dendrimer concentration for C1–C24. Type of data set: cell-based, human. The protocol:
(§1) Culture of and 96 h cytotoxicity tests in the human cell lines CH1/PA-1 (ovarian teratocarcinoma), SW480 (colon carcinoma) and A549 (non-small cell lung cancer) were performed as described previously, with the exception that test compounds were dissolved either in sterile water or supplemented MEM and then serially diluted in the latter medium.
(§2) Three human cancer cell lines differing in their chemosensitivity were employed for testing the cytotoxic potencies of all compounds: the broadly sensitive ovarian teratocarcinoma cell line CH1/PA-1, the multidrug-resistant non-small cell lung cancer cell line A549 and the colon cancer cell line SW480 with mostly intermediate sensitivity. This pattern of sensitivity also reflects throughout the data compiled here.
For orientation: Tetrazolium assays rely on reduction of a dye to a coloured formazan, in cell work by metabolically active cells.

Data set [9] relates to CH1/PA-1 (ovarian teratocarcinoma). In words: MTT cytotoxicity assay, 96 h exposure, CH1/PA-1 cells. Type of data set: cell-based, human. As to conditions: pertains to dendrimer concentration for C1–C24. Here is the method:
as §1
Three human cancer cell lines differing in their chemosensitivity were employed for testing the cytotoxic potencies of all compounds: the broadly sensitive ovarian teratocarcinoma cell line CH1/PA-1, the multidrug-resistant non-small cell lung cancer cell line A549 and the colon cancer cell line SW480 with mostly intermediate sensitivity.

The test system of data set [10] is SW480 (colon carcinoma). In words: MTT cytotoxicity assay, 96 h exposure, SW480 cells. Type of data set: cell-based, human. As to conditions: pertains to dendrimer concentration for C1–C24. The protocol:
as §1, §2

Data set [11] can be described thus: Reduction by ascorbic acid followed by time-dependent 1H NMR. Type of data set: physicochemical. As to conditions: for Reduction Half-Time: 1 mM Pt, 25 eq. ascorbic acid, phosphate-buffered D2O pD 7.4, ambient temperature; for percentage of the reduced species when measurement was stopped before the half-time: 1:25 ascorbic acid, pD 7.4, ambient temperature, at the time given as bound of the half-time. The protocol: The reduction of platinum(IV) complexes and representatives of each series of conjugates by ascorbic acid was observed by ^1H NMR spectroscopic measurements at ambient temperature. An amount of 1 mM solutions of platinum(IV) complexes 1–3, 5–7 as well as of the conjugates C2, C11, C13, C22–C24 referred to their corresponding platinum units were prepared in a D2O phosphate-buffered solution (50 mM) at physiological pD = 7.4. Afterwards, ascorbic acid was added as a reducing agent (25 mM, 25 eq.) and ^1H NMR measurements were performed for several days. The reduction behavior for substances 1–3, 5, 6, C2, C11, C13, C22, C23 was monitored by the resulting decrease in intensity of the acetato signal (release of acetic acid). The percentage of reduced species was determined by using the integration ratios of these two signals. Contrarily, ratios of signals of the succinato ligands and free succinic acid were consulted for the reduction determination of substances 7 and C24. However, the reduction half-time of C24 could not be obtained due to the superimposition of the succinato peaks with other signals.
Moreover, the reduction behavior of conjugates in comparison to unattached platinum(IV) complexes was investigated by time-dependent ^1H NMR spectroscopy (Table 3). In general, the reduction behavior is influenced by the nature of the ligands coordinated to the platinum(IV) core. […] In accordance with previous studies, the cisplatin core of substance 1 led to a faster reduction with a reduction half-time of 6 h, whereas only 6% of the carboplatin(IV) analog 2 was reduced after 95 h. Similar to complex 1, the two chlorido ligands of compound 6 allow fast electron transfer, thereby supporting rapid reduction. […] A potential connection between bulkiness and facilitated reduction has been reported in the literature. As further expected, the influence between G2 and G4 dendrimers on the reduction behavior is marginal due to the huge distance to the platinum(IV) core. Therefore, no significant difference in the rate of reduction between conjugates of G2 and G4 dendrimers was observed based on the measurements of C2 and C13, respectively.

Where two headings read alike, the source gives them in different places. Bounds are passed on as bounds.

Usually IC50 stands for the concentration that gives 50% inhibition. As for `N.N.O=C([O-])C1(C(=O)[O-])CCC1.[Pt+2]` [Carboplatin, reference compound], the results for the IC50 in data set [1], in data set [2] and in data set [3] were 38 ± 3 µM, 0.79 ± 0.11 µM and 42 ± 10 µM, respectively.

As for `N.N.[Cl][Pt][Cl]` [Cisplatin], the IC50 in [4] was 1.85 µM; in data set [1], 3.8 ± 1 µM; in [2], 0.073 ± 0.001 µM; in [3], 2.3 ± 0.2 µM. Moreover, the “maximum tumor growth inhibition effect” value in data set [5] stood at 47.6%. Also, in [6] (30 min and 24 h after first), the “platinum content of blood cells” value is “blood cells contained enhanced platinum contents”. Moreover, in [6], the “platinum levels in lung tissue” value is recorded as “higher levels were detected in lung tissue”. The maximum tolerated dosage in [7] is on record as 3 mg/kg.

For the molecule `O=C1[O][Pt]2([NH][C@@H]3CCCC[C@H]3[NH]2)[O]C1=O` [Oxaliplatin, reference compound], the IC50 in [1] was 0.98 ± 0.21 µM; in [2], 0.18 ± 0.01 µM; in data set [3] it was 0.29 ± 0.05 µM.

With “(OC-6-44)-(3-carboxypropanoato)(1R,2R-cyclohexanem-1,2-diamine)hydroxidooxalatoplatinum(IV) [Complex 7]”, the figures for the IC50 in data set [8], in data set [9] and in data set [10] were 66 ± 2 µM, 5.2 ± 0.8 µM and 20 ± 3 µM, respectively. Moreover, the “Reduction Half-Time” value in data set [11] is given as about 29 h.

As to “(OC-6-44)-Acetaodiammine(3-carboxypropanoato)(cyclobutane-1,1-dicarboxylato)platinum(IV) [Complex 2]”, in [11], the “Reduction Half-Time” value was over 95 h. For the same molecule, the “percentage of the reduced species when measurement was stopped before the half-time” value (“percentage of the reduced species” below) in data set [11] came to 6%. Also, the values for the IC50 in [1], in [2] and in data set [3] were over 200 µM, 16 ± 6 µM and over 200 µM, respectively.

Take “(OC-6-44)-Acetato(3-carboxypropanoato)(1R,2R-cyclohexane-1,2-diamine)oxalatoplatinum(IV) [Complex 3]”: in [11], the “Reduction Half-Time” value was over 165 h. Besides, the “percentage of the reduced species” value in [11] turned out to be 14%. For the same molecule, the IC50 is 70 ± 29 µM in [1], 4.1 ± 0.6 µM in data set [2] and 22 ± 8 µM in data set [3].

As for “(OC-6-44)-Acetato(3-carboxypropanoato)dichlorido(1R,2R-cyclohexane-1,2-diamine)platinum(IV) [Complex 6]”, the IC50 in [8] is 2.8 ± 0.1 µM; in data set [9], 0.44 ± 0.1 µM; in data set [10], 0.85 ± 0.14 µM. Further, in data set [11], the “Reduction Half-Time” value is about 27 h.

For “(OC-6-44)-Acetatodiammine(3-carboxypropanoato)dichloridoplatinum(IV) [Complex 1]”, the “Reduction Half-Time” value in [11] is given as about 6 h. For the same molecule, the results for the IC50 in [1], in data set [2] and in data set [3] were 99 ± 17 µM, 1.2 ± 0.5 µM and 47 ± 11 µM, respectively.

Turning to “(OC-6-54)-Acetato(3-carboxypropanoato)(^13C2)oxalato(1R,2R,4R/1S,2S,4S)-(4-trifluoromethyl-cyclohexane-1,2-diamine)platinum(IV) [Complex 5]”, the IC50 in [8] was determined as 54 ± 6 µM; in data set [9] it was 6 ± 0.9 µM; in data set [10], 33 ± 5 µM. In data set [11], the “Reduction Half-Time” value is on record as over 93 h. In addition, the “percentage of the reduced species” value in data set [11] is given as about 23%.
